Source: patent US12227501B2, “3-amino-2-[2-(acylamino)pyridin-4-yl]-1,5,6,7-tetrahydro-4h-pyrrolo[3,2-c]pyridin-4-one as CSNK1 inhibitors” (Bayer Aktiengesellschaft, priority 2019, dated 2025)
Like-named read-outs stand apart in the source and are kept apart here.

What was measured:
Assay type in all cases: biochemical
human CSNK1A1 [1] = biological target: T1, human CSNK1A1 (Homo sapiens (Human), UniProt P48729); assay: CSNK1A1 Assay 2 (ADP-Glo, 1 μM ATP); conditions: substrate biotin-Ahx-KRRRAL-pS-VASLPGL, read-out: CSNK1A1 Assay 2 IC50 [mol/l] (median)
T1 sequence (P48729 whole entry, the tested form may be a part): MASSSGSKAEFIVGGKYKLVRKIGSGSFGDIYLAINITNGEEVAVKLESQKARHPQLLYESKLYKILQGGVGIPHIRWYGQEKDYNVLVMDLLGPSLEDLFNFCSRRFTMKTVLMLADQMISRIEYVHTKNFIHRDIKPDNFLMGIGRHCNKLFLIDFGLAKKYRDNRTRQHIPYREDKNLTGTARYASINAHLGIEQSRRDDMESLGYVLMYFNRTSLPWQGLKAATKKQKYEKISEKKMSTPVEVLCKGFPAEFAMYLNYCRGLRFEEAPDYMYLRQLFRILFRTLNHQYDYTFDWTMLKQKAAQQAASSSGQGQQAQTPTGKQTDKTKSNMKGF
Method in brief: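 Full-length human CSNK1A1 as an N-terminal GST fusion (baculovirus/insect cells) with biotinylated peptide substrate biotin-Ahx-KRRRAL-pS-VASLPGL and 1 μM ATP, in HEPES pH 7.5 buffer. Compounds were pre-incubated with enzyme (~0.0375 ng/μL) for 15 min at 22 °C. Generated ADP was read by ADP-Glo luminescence as the activity measure.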

human CSNK1A1 [2] = biological target: T1, human CSNK1A1; assay: CSNK1A1 High ATP Assay (ADP-Glo, 1 mM ATP); conditions: read-out: CSNK1A1 high ATP assay IC50 [mol/l] (median)
Method in brief: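 Kinase activity taken as ADP generated, quantified by ADP-Glo luminescence after 1 h ATP depletion and 1 h detection at 22 °C. Enzyme is GST–full-length human CSNK1A1 (insect cell-expressed), pre-bound to compound for 15 min, with phosphopeptide substrate and 1 mM ATP.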

human CSNK1D = human CSNK1D (Homo sapiens (Human), UniProt P48730); assay: CSNK1D Assay (ADP-Glo, 1 μM ATP); conditions: read-out: CSNK1D IC50 [mol/l] (median)
Sequence of human CSNK1D (P48730 whole entry): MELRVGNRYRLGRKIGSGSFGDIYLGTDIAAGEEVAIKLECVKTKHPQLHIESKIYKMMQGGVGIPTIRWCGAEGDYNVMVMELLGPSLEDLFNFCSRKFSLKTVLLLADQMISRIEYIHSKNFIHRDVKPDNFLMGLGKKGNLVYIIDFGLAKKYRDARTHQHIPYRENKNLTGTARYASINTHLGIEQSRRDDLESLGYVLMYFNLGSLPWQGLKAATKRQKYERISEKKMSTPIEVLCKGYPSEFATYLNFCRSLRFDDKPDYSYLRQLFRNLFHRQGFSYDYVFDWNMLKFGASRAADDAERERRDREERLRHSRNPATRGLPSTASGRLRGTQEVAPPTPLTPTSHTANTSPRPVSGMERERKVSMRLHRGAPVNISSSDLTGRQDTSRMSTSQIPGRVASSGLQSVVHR
Method in brief: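 Activity is read as ADP produced, by ADP-Glo luminescence after 1 h steps at 22 °C. The reaction uses 1 μM ATP, a biotinylated peptide and insect-cell-expressed GST–CSNK1D (about 0.5 ng/μL) in pH 7.5 HEPES buffer, with 15 min compound–enzyme preincubation.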

[3] = biological target: wild-type Epidermal Growth Factor Receptor (EGFR) (Homo sapiens (Human), UniProt P00533); assay: WT-EGFR Kinase Assay (TR-FRET, 2 mM ATP)
Sequence of wild-type Epidermal Growth Factor Receptor (EGFR) (P00533 669-1210): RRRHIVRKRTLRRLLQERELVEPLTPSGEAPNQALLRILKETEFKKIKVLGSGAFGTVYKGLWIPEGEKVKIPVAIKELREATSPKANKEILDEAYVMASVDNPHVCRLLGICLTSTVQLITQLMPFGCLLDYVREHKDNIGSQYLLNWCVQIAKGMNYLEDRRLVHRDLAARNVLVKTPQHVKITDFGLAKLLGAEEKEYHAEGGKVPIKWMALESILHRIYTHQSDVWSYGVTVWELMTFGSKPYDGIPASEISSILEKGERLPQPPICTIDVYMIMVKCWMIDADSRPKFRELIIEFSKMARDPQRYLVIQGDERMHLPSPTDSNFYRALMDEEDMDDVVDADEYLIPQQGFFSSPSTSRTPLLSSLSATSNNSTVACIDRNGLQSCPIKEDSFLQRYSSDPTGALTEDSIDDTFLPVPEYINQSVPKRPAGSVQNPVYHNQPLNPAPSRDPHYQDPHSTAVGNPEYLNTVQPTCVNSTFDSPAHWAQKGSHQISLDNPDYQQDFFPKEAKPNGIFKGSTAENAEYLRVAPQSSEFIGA

[4] = EGFR Wildtyp- 2 mM ATP IC50 [mol/l] (median)
[5] = read-out: EGFR Wildtyp- 2 mM ATP IC50 [mol/l] (median)

`CN1C(=O)c2c([nH]c(-c3ccnc(NC(=O)C(CC(F)F)c4ccc(F)cc4)c3)c2Nc2ccccc2F)CC1(C)C` (single isomer, unassigned) [Example 46, 4,4-difluoro-N-{4-[3-(2-fluoroanilino)-5,6,6-trimethyl-4-oxo-4,5,6,7-tetrahydro-1H-pyrrolo[3,2-c]pyridin-2-yl]pyridin-2-yl}-2-(4-fluorophenyl)butanamide] showed an IC50 (human CSNK1A1 [1]) of 6.64 nM, an IC50 (human CSNK1A1 [2]) of 119 nM and an IC50 (human CSNK1D) of 8.33 nM. It also gave an IC50 [3, 4] greater than 20 µM.

With `CC(C(=O)Nc1cc(-c2[nH]c3c(c2Nc2ccccc2)C(=O)N(C)C(C)C3)ccn1)c1ccc(F)cc1` (single isomer, unassigned; (+)) [Example 96, (+)-N-{4-[3-anilino-5,6-dimethyl-4-oxo-4,5,6,7-tetrahydro-1H-pyrrolo[3,2-c]pyridin-2-yl]pyridin-2-yl}-2-(4-fluorophenyl)propanamide] the IC50 (human CSNK1A1 [1]) was 5.37 nM, the IC50 (human CSNK1A1 [2]) was 35.8 nM and the IC50 (human CSNK1D) was 4.36 nM. The IC50 [3, 4] was 7.04 µM.

For `CC(C(=O)Nc1cc(-c2[nH]c3c(c2Nc2ccccc2)C(=O)N(C)CC3)ccn1)c1ccncc1` (single isomer, unassigned; (+)) [Example 73, (+)-N-[4-(3-anilino-5-methyl-4-oxo-4,5,6,7-tetrahydro-1H-pyrrolo[3,2-c]pyridin-2-yl)pyridin-2-yl]-2-(pyridin-4-yl)propanamide], the IC50 (human CSNK1A1 [1]) was 2.38 nM, the IC50 (human CSNK1A1 [2]) was 63.3 nM and the IC50 (human CSNK1D) was 4.46 nM. For the same compound, the IC50 [3, 4] was 6.78 µM.

`CC(C(=O)Nc1cc(-c2[nH]c3c(c2Nc2ccccc2)C(=O)N(C2CC2)CC3)ccn1)c1ccc(F)cc1` (stereo not shown) [Example 8, N-[4-(3-anilino-5-cyclopropyl-4-oxo-4,5,6,7-tetrahydro-1H-pyrrolo[3,2-c]pyridin-2-yl)pyridin-2-yl]-2-(4-fluorophenyl)propanamide] was tested, and the IC50 (human CSNK1A1 [1]) was 15.4 nM, the IC50 (human CSNK1A1 [2]) was 1930 nM and the IC50 (human CSNK1D) was 37.9 nM. For the same compound, the IC50 [3, 5] was greater than 20 µM.

`CC1Cc2[nH]c(-c3ccnc(NC(=O)Cc4ccc(F)cc4)c3)c(Nc3ccccc3)c2C(=O)N1C` (racemic) [Example 88, N-{4-[3-anilino-5,6-dimethyl-4-oxo-4,5,6,7-tetrahydro-1H-pyrrolo[3,2-c]pyridin-2-yl]pyridin-2-yl}-2-(4-fluorophenyl)acetamide] showed an IC50 (human CSNK1A1 [1]) of 2.33 nM, an IC50 (human CSNK1A1 [2]) of 65.1 nM and an IC50 (human CSNK1D) of 5.18 nM. For the same compound, the IC50 [3, 4] was 0.727 µM.

Work on `CC1Cc2[nH]c(-c3ccnc(NC(=O)C(CC(F)F)c4ccc(F)cc4)c3)c(Nc3ccccc3F)c2C(=O)N1C` (single isomer, unassigned; (+)) [Example 105, (+)-4,4-difluoro-N-{4-[3-(2-fluoroanilino)-5,6-dimethyl-4-oxo-4,5,6,7-tetrahydro-1H-pyrrolo[3,2-c]pyridin-2-yl]pyridin-2-yl}-2-(4-fluorophenyl)butanamide] yielded an IC50 (human CSNK1A1 [1]) of 4.06 nM, an IC50 (human CSNK1A1 [2]) of 94.5 nM and an IC50 (human CSNK1D) of 5.45 nM. It also gave an IC50 [3, 5] greater than 20 µM.

Work on `CC(C(=O)Nc1cc(-c2[nH]c3c(c2Nc2ccccc2)C(=O)NCC3)ccn1)c1ccc(F)cc1` (single isomer, unassigned) [Example 10, N-[4-(3-anilino-4-oxo-4,5,6,7-tetrahydro-1H-pyrrolo[3,2-c]pyridin-2-yl)pyridin-2-yl]-2-(4-fluorophenyl)propanamide] yielded an IC50 (human CSNK1A1 [1]) of 4.61 nM, an IC50 (human CSNK1A1 [2]) of 25.5 nM and an IC50 (human CSNK1D) of 14 nM. It also gave an IC50 [3, 4] of 12.4 µM.

In the case of `CN1CCc2[nH]c(-c3ccnc(NC(=O)Cc4cnccn4)c3)c(Nc3ccccc3)c2C1=O` [Example 114, N-[4-(3-anilino-5-methyl-4-oxo-4,5,6,7-tetrahydro-1H-pyrrolo[3,2-c]pyridin-2-yl)pyridin-2-yl]-2-(pyrazin-2-yl)acetamide], the IC50 (human CSNK1A1 [1]) is reported as 2.43 nM, the IC50 (human CSNK1A1 [2]) is reported as 227 nM and the IC50 (human CSNK1D) is reported as 4.7 nM. It also gave an IC50 [3, 5] of 2.06 µM.

With `CN1C(=O)c2c([nH]c(-c3ccnc(NC(=O)C(CC(F)F)c4ccc(F)cc4)c3)c2Nc2ccccc2)CC12CCC2` (racemic) [Example 160, N-[4-(3′-anilino-5′-methyl-4′-oxo-1′,4′,5′,7′-tetrahydrospiro[cyclobutane-1,6′-pyrrolo[3,2-c]pyridin]-2′-yl)pyridin-2-yl]-4,4-difluoro-2-(4-fluorophenyl)butanamide (Racemate)] the IC50 (human CSNK1A1 [1]) was 13.3 nM, the IC50 (human CSNK1A1 [2]) was 27.2 nM and the IC50 (human CSNK1D) was 15.8 nM. The IC50 [3, 4] was greater than 20 µM.

`CN1CCc2[nH]c(-c3ccnc(NC(=O)Cc4cccnc4)c3)c(Nc3ccccc3)c2C1=O` [Example 67, N-[4-(3-anilino-5-methyl-4-oxo-4,5,6,7-tetrahydro-1H-pyrrolo[3,2-c]pyridin-2-yl)pyridin-2-yl]-2-(pyridin-3-yl)acetamide] showed an IC50 (human CSNK1A1 [1]) of 2.41 nM, an IC50 (human CSNK1A1 [2]) of 44.6 nM and an IC50 (human CSNK1D) of 3.79 nM. It also gave an IC50 [3, 5] of 0.997 µM.

Work on `O=C1NC2(CCC2)Cc2[nH]c(-c3ccnc(NC(=O)C(CC(F)F)c4ccc(F)cc4)c3)c(Nc3cccc(F)c3Cl)c21` (racemic) [Example 123, N-{4-[3′-(2-chloro-3-fluoroanilino)-4′-oxo-1′,4′,5′,7′-tetrahydrospiro[cyclobutane-1,6′-pyrrolo[3,2-c]pyridin]-2′-yl]pyridin-2-yl}-4,4-difluoro-2-(4-fluorophenyl)butanamide (Racemate)] yielded an IC50 (human CSNK1A1 [1]) of 13.5 nM, an IC50 (human CSNK1A1 [2]) of 29.1 nM and an IC50 (human CSNK1D) of 9.91 nM. For the same compound, the IC50 [3, 4] was 0.0564 µM.

`CC1(C)Cc2[nH]c(-c3ccnc(NC(=O)Cc4ccncc4)c3)c(Nc3ccccc3)c2C(=O)N1` [Example 51, N-[4-(3-anilino-6,6-dimethyl-4-oxo-4,5,6,7-tetrahydro-1H-pyrrolo[3,2-c]pyridin-2-yl)pyridin-2-yl]-2-(pyridin-4-yl)acetamide] gave an IC50 (human CSNK1A1 [1]) of 4.87 nM, an IC50 (human CSNK1A1 [2]) of 25.8 nM and an IC50 (human CSNK1D) of 6.67 nM. It also gave an IC50 [3, 5] of 0.563 µM.

`CC1(C)Cc2[nH]c(-c3ccnc(NC(=O)C(CC(F)F)c4ccc(F)cc4)c3)c(Nc3cccc(F)c3)c2C(=O)N1` (single isomer, unassigned; enantiomer 1) [Example 120, 4,4-difluoro-N-{4-[3-(3-fluoroanilino)-6,6-dimethyl-4-oxo-4,5,6,7-tetrahydro-1H-pyrrolo[3,2-c]pyridin-2-yl]pyridin-2-yl}-2-(4-fluorophenyl)butanamide (Enantiomer 1)] was tested, and the IC50 (human CSNK1A1 [1]) was 9.64 nM, the IC50 (human CSNK1A1 [2]) was 477 nM and the IC50 (human CSNK1D) was 11 nM. For the same compound, the IC50 [3, 4] was greater than 20 µM.

`CN(C)CCCC(C(=O)Nc1cc(-c2[nH]c3c(c2Nc2ccccc2)C(=O)N(C)CC3)ccn1)c1ccccc1` (single isomer, unassigned; (+)) [Example 60, (+)-N-[4-(3-anilino-5-methyl-4-oxo-4,5,6,7-tetrahydro-1H-pyrrolo[3,2-c]pyridin-2-yl)pyridin-2-yl]-5-(dimethylamino)-2-phenylpentanamide] was tested, and the IC50 (human CSNK1A1 [1]) was 7.34 nM, the IC50 (human CSNK1A1 [2]) was 437 nM and the IC50 (human CSNK1D) was 11.8 nM. It also gave an IC50 [3, 4] of 7.34 µM.

For `CC(C(=O)Nc1cc(-c2[nH]c3c(c2Nc2ccccc2)C(=O)NCC3)ccn1)c1ccc(F)cc1` (single isomer, unassigned) [Example 11, N-[4-(3-anilino-4-oxo-4,5,6,7-tetrahydro-1H-pyrrolo[3,2-c]pyridin-2-yl)pyridin-2-yl]-2-(4-fluorophenyl)propanamide], the IC50 (human CSNK1A1 [1]) was 30.4 nM, the IC50 (human CSNK1A1 [2]) was 3970 nM and the IC50 (human CSNK1D) was 30.8 nM. It also gave an IC50 [3, 4] of 2.29 µM.

`CN(C)CCCC(C(=O)Nc1cc(-c2[nH]c3c(c2Nc2ccccc2)C(=O)N(C)CC3)ccn1)c1ccccc1` (single isomer, unassigned; (-)) [Example 59, (−)-N-[4-(3-anilino-5-methyl-4-oxo-4,5,6,7-tetrahydro-1H-pyrrolo[3,2-c]pyridin-2-yl)pyridin-2-yl]-5-(dimethylamino)-2-phenylpentanamide] showed an IC50 (human CSNK1A1 [1]) of 94.3 nM, an IC50 (human CSNK1A1 [2]) of 7300 nM and an IC50 (human CSNK1D) of 86.2 nM. It also gave an IC50 [3, 4] of 16.3 µM.
